Data: PubChem BioAssay (NCI)
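All cell lines were grown in 96-well plates and treated with compound for 48 hours. GI50: concentration for 50% inhibition of growth. At the TGI there is no net growth.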

Legend:
Test in all cases: NCI anticancer screen, dose series, 48 h
786-0 renal = tested on: 786-0 renal
A498 renal = tested on: A498 renal
A549 NSCLC = tested on: A549 NSCLC
ACHN renal = tested on: ACHN renal
BT-549 breast = tested on: BT-549 breast
CAKI-1 renal = tested on: CAKI-1 renal
CCRF-CEM leukemia = tested on: CCRF-CEM leukemia
COLO 205 colon = tested on: COLO 205 colon
DU-145 prostate = tested on: DU-145 prostate
EKVX NSCLC = tested on: EKVX NSCLC
HCC-2998 colon = tested on: HCC-2998 colon
HCT-116 colon = tested on: HCT-116 colon
HCT-15 colon = tested on: HCT-15 colon
HL-60(TB) leukemia = tested on: HL-60(TB) leukemia
HOP-62 NSCLC = tested on: HOP-62 NSCLC
HOP-92 NSCLC = tested on: HOP-92 NSCLC
HS 578T breast = tested on: HS 578T breast
HT29 colon = tested on: HT29 colon
IGROV1 ovarian = tested on: IGROV1 ovarian
K-562 leukemia = tested on: K-562 leukemia
KM12 colon = tested on: KM12 colon
LOX IMVI melanoma = tested on: LOX IMVI melanoma
M14 melanoma = tested on: M14 melanoma
MALME-3M melanoma = tested on: MALME-3M melanoma
MCF7 breast = tested on: MCF7 breast
MDA-MB-231 breast = tested on: MDA-MB-231 breast
MDA-MB-435 = tested on: MDA-MB-435
MOLT-4 leukemia = tested on: MOLT-4 leukemia
NCI-H226 lung = tested on: NCI-H226 lung
NCI-H23 lung = tested on: NCI-H23 lung
NCI-H460 lung = tested on: NCI-H460 lung
NCI/ADR-RES ovarian = tested on: NCI/ADR-RES ovarian
OVCAR-3 ovarian = tested on: OVCAR-3 ovarian
OVCAR-4 ovarian = tested on: OVCAR-4 ovarian
OVCAR-5 ovarian = tested on: OVCAR-5 ovarian
OVCAR-8 ovarian = tested on: OVCAR-8 ovarian
PC-3 prostate = tested on: PC-3 prostate
RPMI-8226 leukemia = tested on: RPMI-8226 leukemia
RXF 393 renal = tested on: RXF 393 renal
SF-268 CNS = tested on: SF-268 CNS
SF-295 CNS = tested on: SF-295 CNS
SF-539 CNS = tested on: SF-539 CNS
SK-MEL-2 melanoma = tested on: SK-MEL-2 melanoma
SK-MEL-28 melanoma = tested on: SK-MEL-28 melanoma
SK-MEL-5 melanoma = tested on: SK-MEL-5 melanoma
SK-OV-3 ovarian = tested on: SK-OV-3 ovarian
SN12C renal = tested on: SN12C renal
SNB-19 CNS = tested on: SNB-19 CNS
SNB-75 CNS = tested on: SNB-75 CNS
SW-620 colon = tested on: SW-620 colon
T-47D breast = tested on: T-47D breast
TK-10 renal = tested on: TK-10 renal
U251 CNS = tested on: U251 CNS
UACC-257 melanoma = tested on: UACC-257 melanoma
UACC-62 melanoma = tested on: UACC-62 melanoma
UO-31 renal = tested on: UO-31 renal
NCI-H522 lung = tested on: NCI-H522 lung
SR leukemia = tested on: SR leukemia

## CCOC(=O)c1c(SC)nc(-c2ccc(Cl)cc2)sc1=N
786-0 renal
  TGI: > 100 µM
A498 renal
  TGI: > 100 µM
A549 NSCLC
  TGI: > 100 µM
ACHN renal
  TGI: > 100 µM
BT-549 breast
  TGI: > 100 µM
CAKI-1 renal
  TGI: > 100 µM
CCRF-CEM leukemia
  TGI: > 100 µM
COLO 205 colon
  TGI: 44.9 µM
DU-145 prostate
  TGI: > 100 µM
EKVX NSCLC
  TGI: 55.2 µM
HCC-2998 colon
  TGI: 63.9 µM
HCT-116 colon
  TGI: 72 µM
HCT-15 colon
  TGI: 73.9 µM
HL-60(TB) leukemia
  TGI: 78.7 µM
HOP-62 NSCLC
  TGI: 95.7 µM
HOP-92 NSCLC
  TGI: > 100 µM
HS 578T breast
  TGI: > 100 µM
HT29 colon
  TGI: > 100 µM
IGROV1 ovarian
  TGI: 54.5 µM
K-562 leukemia
  TGI: > 100 µM
KM12 colon
  TGI: > 100 µM
LOX IMVI melanoma
  TGI: > 100 µM
M14 melanoma
  TGI: > 100 µM
MALME-3M melanoma
  TGI: 49 µM
MCF7 breast
  TGI: 83.4 µM
MDA-MB-231 breast
  TGI: > 100 µM
MDA-MB-435
  TGI: > 100 µM
MOLT-4 leukemia
  TGI: 94 µM
NCI-H226 lung
  TGI: 80.4 µM
NCI-H23 lung
  TGI: 80.3 µM
NCI-H460 lung
  TGI: > 100 µM
NCI/ADR-RES ovarian
  TGI: 73.5 µM
OVCAR-3 ovarian
  TGI: > 100 µM
OVCAR-4 ovarian
  TGI: > 100 µM
OVCAR-5 ovarian
  TGI: > 100 µM
OVCAR-8 ovarian
  TGI: 80 µM
PC-3 prostate
  TGI: 61.9 µM
RPMI-8226 leukemia
  TGI: > 100 µM
RXF 393 renal
  TGI: > 100 µM
SF-268 CNS
  TGI: > 100 µM
SF-295 CNS
  TGI: > 100 µM
SF-539 CNS
  TGI: > 100 µM
SK-MEL-2 melanoma
  TGI: 52.7 µM
SK-MEL-28 melanoma
  TGI: > 100 µM
SK-MEL-5 melanoma
  TGI: 38.8 µM
SK-OV-3 ovarian
  TGI: > 100 µM
SN12C renal
  TGI: > 100 µM
SNB-19 CNS
  TGI: > 100 µM
SNB-75 CNS
  TGI: 99.4 µM
SW-620 colon
  TGI: > 100 µM
T-47D breast
  TGI: > 100 µM
TK-10 renal
  TGI: > 100 µM
U251 CNS
  TGI: > 100 µM
UACC-257 melanoma
  TGI: > 100 µM
UACC-62 melanoma
  TGI: > 100 µM
UO-31 renal
  TGI: > 100 µM

## c1cc2ccc3cc2cc1CNCCOCCNCc1ccc2ccc(cc2c1)CNCCOCCNC3
786-0 renal
  GI50: > 100 µM
  TGI: > 100 µM
A498 renal
  GI50: > 100 µM
  TGI: > 100 µM
A549 NSCLC
  GI50: > 100 µM
  TGI: > 100 µM
ACHN renal
  GI50: > 100 µM
  TGI: > 100 µM
BT-549 breast
  GI50: > 100 µM
  TGI: > 100 µM
CAKI-1 renal
  GI50: > 100 µM
  TGI: > 100 µM
COLO 205 colon
  GI50: > 100 µM
  TGI: > 100 µM
DU-145 prostate
  GI50: > 100 µM
  TGI: > 100 µM
EKVX NSCLC
  GI50: > 100 µM
  TGI: > 100 µM
HCC-2998 colon
  GI50: > 100 µM
  TGI: > 100 µM
HCT-116 colon
  GI50: > 100 µM
  TGI: > 100 µM
HCT-15 colon
  GI50: > 100 µM
  TGI: > 100 µM
HL-60(TB) leukemia
  GI50: > 100 µM
  TGI: > 100 µM
HOP-62 NSCLC
  GI50: > 100 µM
  TGI: > 100 µM
HS 578T breast
  GI50: > 100 µM
  TGI: > 100 µM
HT29 colon
  GI50: > 100 µM
  TGI: > 100 µM
IGROV1 ovarian
  GI50: > 100 µM
  TGI: > 100 µM
K-562 leukemia
  GI50: > 100 µM
  TGI: > 100 µM
KM12 colon
  GI50: > 100 µM
  TGI: > 100 µM
LOX IMVI melanoma
  GI50: > 100 µM
  TGI: > 100 µM
M14 melanoma
  GI50: > 100 µM
  TGI: > 100 µM
MALME-3M melanoma
  GI50: > 100 µM
  TGI: > 100 µM
MCF7 breast
  GI50: > 100 µM
  TGI: > 100 µM
MDA-MB-231 breast
  GI50: > 100 µM
  TGI: > 100 µM
MDA-MB-435
  GI50: > 100 µM
  TGI: > 100 µM
MOLT-4 leukemia
  GI50: > 100 µM
  TGI: > 100 µM
NCI-H226 lung
  GI50: > 100 µM
  TGI: > 100 µM
NCI-H23 lung
  GI50: > 100 µM
  TGI: > 100 µM
NCI-H460 lung
  GI50: > 100 µM
  TGI: > 100 µM
NCI-H522 lung
  GI50: > 100 µM
  TGI: > 100 µM
NCI/ADR-RES ovarian
  GI50: > 100 µM
  TGI: > 100 µM
OVCAR-3 ovarian
  GI50: > 100 µM
  TGI: > 100 µM
OVCAR-4 ovarian
  GI50: > 100 µM
  TGI: > 100 µM
OVCAR-5 ovarian
  GI50: > 100 µM
  TGI: > 100 µM
OVCAR-8 ovarian
  GI50: > 100 µM
  TGI: > 100 µM
RXF 393 renal
  GI50: > 100 µM
  TGI: > 100 µM
SF-268 CNS
  GI50: > 100 µM
  TGI: > 100 µM
SF-295 CNS
  GI50: > 100 µM
  TGI: > 100 µM
SF-539 CNS
  GI50: > 100 µM
  TGI: > 100 µM
SK-MEL-2 melanoma
  GI50: > 100 µM
  TGI: > 100 µM
SK-MEL-28 melanoma
  GI50: > 100 µM
  TGI: > 100 µM
SK-MEL-5 melanoma
  GI50: > 100 µM
  TGI: > 100 µM
SK-OV-3 ovarian
  GI50: > 100 µM
  TGI: > 100 µM
SN12C renal
  GI50: > 100 µM
  TGI: > 100 µM
SNB-19 CNS
  GI50: > 100 µM
  TGI: > 100 µM
SR leukemia
  GI50: > 100 µM
  TGI: > 100 µM
SW-620 colon
  GI50: > 100 µM
  TGI: > 100 µM
T-47D breast
  GI50: > 100 µM
  TGI: > 100 µM
TK-10 renal
  GI50: > 100 µM
  TGI: > 100 µM
U251 CNS
  GI50: > 100 µM
  TGI: > 100 µM
UACC-257 melanoma
  GI50: > 100 µM
  TGI: > 100 µM
UACC-62 melanoma
  GI50: > 100 µM
  TGI: > 100 µM
UO-31 renal
  GI50: > 100 µM
  TGI: > 100 µM
